pEC50: −log10 of the molar value.
Test system: genotype 1/2 chimeric cell culture derived HCV (HCVcc)
Test: Genotype 1/2 chimeric HCVcc assay (nano-luciferase, HCV replication)
Format: cell-based
Conditions: Hepatitis C virus
In short: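 EC50 (replication, nano-luciferase) and CC50 (viability, cellular ATP) were determined by non-linear regression 72 h after infection with a reporter HCVcc chimera carrying genotype 1a structural and 2a JFH-1 non-structural proteins. Compound was applied to Huh-7.5 cells 2 h before inoculation.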

SMILES	pEC50
O=C(NC/C=C/CN1CCC(N2CCCCC2)CC1)c1ccc(-c2ccc(C(F)(F)F)cc2)cc1 [Compound 1117]	6.00 to 7.00
O=C(NCCCN1CCC(c2ccccc2)CC1)c1ccc(Oc2ccccc2)cc1 [Compound 1041]	5.00 to 6.00
O=S(=O)(NCCCCN1CCC(N2CCCCC2)CC1)c1ccc(-c2ccccc2)cc1 [Compound 1091]	6.00 to 7.00
O=C(NCCCN1CCC(N2CCCCC2)CC1)c1ccc(-c2ccc(C(F)(F)F)cc2)cc1F [Compound 1153]	6.00 to 7.00
O=C(c1ccc(Oc2ccccc2)cc1)N1CCC(C(=O)N2CCC(N3CCCCC3)CC2)C1 (stereo not drawn) [Compound 1054]	< 5.00
O=C(NCCCN1CCC(N2CCCCC2)CC1)Nc1ccc(-c2ccc(C(F)(F)F)cc2)cc1 [Compound 1118]	6.00 to 7.00
Cc1cc(-c2ccc(C(F)(F)F)cc2)ccc1C(=O)NCCCN1CCC(N2CCCCC2)CC1 [Compound 1156]	6.00 to 7.00
O=C(NCCCN1CCC(Oc2ccccc2)CC1)c1ccc(Oc2ccccc2)cc1 [Compound 1056]	5.00 to 6.00
CC(=O)Nc1ccc(-c2ccc(C(=O)NCCCN3CCC(N4CCCCC4)CC3)cc2)cc1 [Compound 1140]	< 5.00
O=C(CCCN1CCC(N2CCCCC2)CC1)Nc1ccc(-c2ccc(C(F)(F)F)cc2)cc1 [Compound 1086]	6.00 to 7.00
O=C(NCCCN1CCC(N2CCCCC2)CC1)c1ccc(-c2ccc(C(F)(F)F)cc2)c(Cl)c1 [Compound 1085]	6.00 to 7.00
O=C(NCCCN1CCC(N2CCCCC2)CC1)c1ccc(-c2ccc3occc3c2)cc1 [Compound 1126]	6.00 to 7.00
O=C(NCCCN1CCC(N2CCCCC2)CC1)c1ccc(-c2ccc(F)cc2C(F)(F)F)cc1 [Compound 1133]	6.00 to 7.00
COc1cc(-c2ccc(C(F)(F)F)cc2)ccc1C(=O)NCCCN1CCC(N2CCCCC2)CC1 [Compound 1155]	6.00 to 7.00
O=C(NCCCN1CCC(N2CCCCC2)CC1)c1ccc(N2CCCCC2)cc1 [Compound 1030]	5.00 to 6.00
O=C(CCCN1CCC(N2CCCCC2)CC1)Nc1ccc(-c2ccc(C(F)(F)F)cc2)c(C(F)(F)F)c1 [Compound 1158]	6.00 to 7.00
O=C(NCCCN1CCC(N2CCCCC2)CC1)c1ccc(-c2ccc(CO)cc2)cc1 [Compound 1148]	< 5.00
O=C(NCCCN1CCC(N2CCCCC2)CC1)c1ccc(Oc2cccc(F)c2)cc1 [Compound 1062]	< 5.00
O=C(NC1CC(N2CCC(N3CCCCC3)CC2)C1)c1ccc(Oc2ccccc2)cc1 (stereo not drawn) [Compound 1059]	5.00 to 6.00
CC(C)(C)c1ccc(-c2ccc(C(=O)NCCCN3CCC(N4CCCCC4)CC3)cc2)cc1 [Compound 1124]	6.00 to 7.00
COc1ccccc1Oc1ccc(C(=O)NCCCN2CCC(N3CCCCC3)CC2)cc1 [Compound 1063]	< 5.00
O=C(NCCCN1CCC(N2CCCCC2)CC1)c1ccc(N2CCOCC2)cc1 [Compound 1029]	< 5.00
O=C(NCCCN1CCC(N2CCCCC2)CC1)c1ccc(Oc2ccc(Br)cc2)cc1 [Compound 1034]	5.00 to 6.00
O=C(NCCCN1CCC(N2CCCCC2)CC1)c1ccc(-c2cccc([N+](=O)[O-])c2)cc1 [Compound 1147]	6.00 to 7.00
O=C(NCCCN1CCC(N2CCCCC2)CC1)c1ccc(Oc2ccc(Cl)cc2)cc1 [Compound 1109]	5.00 to 6.00
O=C(NCCCN1CCC(N2CCCCC2)CC1)c1ccc(-c2cccc(N3CCOCC3)c2)cc1 [Compound 1142]	5.00 to 6.00
COc1cccc(Oc2ccc(C(=O)NCCCN3CCC(N4CCCCC4)CC3)cc2)c1 [Compound 1064]	< 5.00
O=C(NCCCN1CCC(N2CCCCC2)CC1)c1ccc(-c2ccc(N3CCOCC3)cc2)cc1 [Compound 1123]	6.00 to 7.00
O=C(CCCN1CCC(N2CCCCC2)CC1)Nc1ccc(-c2ccc(C(F)(F)F)cc2)cc1F [Compound 1114]	6.00 to 7.00
O=C(c1ccc(C2CCCCC2)cc1)N1CCC(N2CCCCC2)CC1 [Compound 1007]	5.00 to 6.00

Same assay, conditions: Hepatitis C virus, Huh7.5, 72 h

SMILES	pEC50
CCOC(=O)c1c(NC(=O)NCc2csc3c2CCNC3)sc2c1CCCC2 [Compound 38]	> 7.00
CC(C)OC(=O)c1c(NC(=O)NCc2c(C(F)(F)F)sc3c2CC[N+](C)(C)C3)sc2c1CCCC2 [Compound 170]	> 7.00
CCN1CCc2c(sc(C(F)(F)F)c2CNC(=O)Nc2sc3c(c2C(=O)OC(C)(C)C)CCC3)C1 [Compound 254]	> 7.00
Cc1nnc(-c2c(NC(=O)NCc3c(-n4cccc4)sc4c3CCNC4)sc(C)c2C)o1 [Compound 72]	6.00 to 7.00
CCN1CCc2c(sc(-n3cccc3)c2CNC(=O)Nc2sc3c(c2-c2c[nH]cn2)CCCC3)C1 [Compound 95]	< 5.00
NC(=O)c1c(NC(=O)NCc2c(C(F)(F)F)sc3c2CCNC3)sc2c1CCCC2 [Compound 374]	5.00 to 6.00
CC(C)(C)OC(=O)c1c(NC(=O)NCc2c(-n3cccc3)sc3c2CCNC3)sc2c1CCC2 [Compound 277]	> 7.00
CCOC(=O)c1c(NC(=O)NCc2c(-n3cccc3)sc3c2CCN(C)C3)sc2c1CCCC2 [Compound 67]	> 7.00
CCOC(=O)c1c(NC(=O)NCc2c(C(F)(F)F)sc3c2CCN(C(=O)C(C)N)C3)sc2c1CCCC2 (stereo not drawn) [Compound 315]	> 7.00
CCOC(=O)c1c(NC(=O)NCc2c(-n3cccc3)sc3c2CCN(C)C3)sc2c1C(C)CCC2 (stereo not drawn) [Compound 152]	> 7.00
CCOC(=O)c1c(NC(=O)NCc2c(-n3cccc3)sc3c2CCN(CC)C3)sc2c1CCC2 [Compound 57]	> 7.00
CC(C)(C)OC(=O)c1c(NC(=O)NCc2c(Br)sc3c2CCNC3)sc2c1CCCCC2 [Compound 225]	> 7.00
CCN1CCc2c(sc(-n3cccc3)c2CNC(=O)Nc2sc(C)c(C)c2C(=O)OC(C)(C)C)C1 [Compound 25]	> 7.00
COC(=O)c1c(NC(=O)NCc2c(-n3cccc3)sc3c2CCNC3)sc2c1CCCC2 [Compound 142]	6.00 to 7.00
CCN1CCc2c(sc(C(F)(F)F)c2CNC(=O)Nc2sc(C)c(C)c2C(=O)OC(C)C)C1 [Compound 296]	> 7.00
Cc1sc(NC(=O)C(=O)NCc2c(-n3cccc3)sc3c2CCNC3)c(C(=O)OC(C)(C)C)c1C [Compound 361]	6.00 to 7.00
CCOC(=O)c1c(NC(=O)c2c(-n3cccc3)sc3c2CCN(CC)C3)sc2c1CCCC2 [Compound 23]	5.00 to 6.00
CCOC(=O)c1c(NC(=O)NCc2c(C(F)(F)F)sc3c2CCNC3)sc2c1CC(C)CC2 (stereo not drawn) [Compound 194]	> 7.00
Cc1sc(NC(=O)NCc2c(-n3cccc3)sc3c2CCN(C)C3)c(C(=O)OC(C)(C)C)c1C [Compound 69]	> 7.00
CCOC(=O)c1c(NC(=O)NCc2c(-n3cccc3)sc3c2CCOC3)sc2c1CCCC2 [Compound 48]	> 7.00
C#CCN1CCc2c(sc(-n3cccc3)c2CNC(=O)Nc2sc3c(c2C(=O)OC(C)(C)C)CCCC3)C1 [Compound 325]	> 7.00
CC(C)(C)OC(=O)c1c(NC(=O)NCc2c(-c3ccc(Cl)nc3)sc3c2CCNC3)sc2c1CCCC2 [Compound 307]	> 7.00
CCOC(=O)c1c(NC(=O)NCc2c(C(F)(F)F)sc3c2CCN(C(=O)[C@H](C)N)C3)sc2c1CCCC2 [Compound 327]	> 7.00

SMILES	pEC50
CCOC(=O)c1c(NC(=O)NCc2c(-n3cccc3)sc3c2CCN(CC(C)C)C3)sc2c1CCCC2 [Compound 27]	> 7.00
CCOC(=O)c1c(NC(=O)NCc2c(-n3cccc3)sc3c2CCCN3)sc2c1CCCC2 [Compound 101]	6.00 to 7.00
CCOC(=O)c1c(NC(=O)NCc2c(-n3cccc3)sc3c2CCN(Cc2ccccc2)C3)sc(C)c1C [Compound 28]	> 7.00
COC(=O)c1c(NC(=O)NCc2c(-n3cccc3)sc3c2CCN(C)C3)sc2c1CCCC2 [Compound 155]	6.00 to 7.00
CC1Cc2c(sc(NC(=O)NCc3c(-n4cccc4)sc4c3CCN(C)C4)c2C(=O)OC(C)(C)C)C(C)C1 (stereo not drawn) [Compound 293]	> 7.00
CCN1CCc2c(sc(-n3cccc3)c2CNC(=O)Nc2sc3c(c2C(=O)OC(C)C)CCCC3)C1 [Compound 157]	> 7.00
CCOC(=O)c1c(NC(=O)NCc2c(-n3cccc3)sc3c2CCCC3)sc2c1CCCC2 [Compound 4]	> 7.00
Cc1sc(NC(=O)NCc2c(C(F)(F)F)sc3c2CCNC3)c(C(=O)OC(C)C)c1C [Compound 217]	> 7.00
CN1CCc2c(sc(-n3cccc3)c2CNC(=O)Nc2sc3c(c2C(=O)OC(C)(C)C)CCCC3)C1 [Compound 68]	> 7.00
COc1cccc(-c2sc3c(c2CNC(=O)Nc2sc4c(c2C(=O)OC(C)(C)C)CCCC4)CCNC3)c1 [Compound 228]	6.00 to 7.00
CCOC(=O)c1c(NC(=O)NCc2c(C(F)(F)F)sc3c2CCN(CCN(C)C)C3)sc2c1CCCC2 [Compound 316]	> 7.00
CC(C)(C)OC(=O)c1c(NC(=O)NCc2c(-n3cccc3)sc3c2CCNC3)sc2c1CCCC2 [Compound 106]	> 7.00
CC(C)(C)OC(=O)c1c(NC(=O)NCc2c(-c3ccc(C(F)(F)F)cc3)sc3c2CCNC3)sc2c1CCCC2 [Compound 146]	> 7.00
CCN(C)Cc1sc(-n2cccc2)c(CNC(=O)Nc2sc3c(c2C(=O)OC(C)(C)C)CCCC3)c1C [Compound 136]	> 7.00
Cc1cc(C(=O)OC(C)(C)C)c(NC(=O)NCc2c(C(F)(F)F)sc3c2CCNC3)s1 [Compound 347]	> 7.00
CC(C)OC(=O)c1c(NC(=O)NCc2c(Br)sc3c2CCNC3)sc2c1CCCC2 [Compound 140]	> 7.00
CCNC(=O)c1c(NC(=O)NCc2c(-n3cccc3)sc3c2CCNC3)sc2c1CCCC2 [Compound 59]	> 7.00
CCOC(=O)c1c(NC(=O)NCc2c(C(F)(F)F)sc3c2CCNC3)sc2c1C(C)CCC2 (stereo not drawn) [Compound 190]	> 7.00
CC(C)(C)OC(=O)c1c(NC(=O)NCc2c(-c3ccc(O)cc3)sc3c2CCNC3)sc2c1CCCC2 [Compound 256]	6.00 to 7.00
CCOC(=O)c1c(NC(=O)NCc2c(Br)sc3c2CCNC3)sc2c1C(C)CCC2 (stereo not drawn) [Compound 164]	> 7.00
O=C(NCc1c(C(F)(F)F)sc2c1CCNC2)Nc1sc2c(c1C(=O)OC1CCOC1)CCOC2 (stereo not drawn) [Compound 336]	> 7.00
CCNC(=O)c1c(NC(=O)NCc2c(-n3cccc3)sc3c2CCN(CC)C3)sc2c1CCCC2 [Compound 36]	> 7.00
